Experimental data taken from patent US20060084599A1, “Compositions, methods and kits relating to notch signaling” (Maine Medical Center, priority 2003, published 2006).
Marks after values point to notes of the source that are not given here.

B1: sDl1: soluble non-transmembrane form (extracellular domain) of the Notch ligand Delta1 (protein)
chain: QVWSSGVFELKLQEFVNKKGLLGNRNCCRGGAGPPPCACRTFFRVCLKHYQASVSPEPPCTYGSAVTPVLGVDSFSLPDGGGADSAFSNPIRFPFGFTWPGTFSLIIEALHTDSPDDLATENPERLISRLATQRHLTVGEEWSQDLHSSGRTDLKYSYRFVCDEHYYGEGCSVFCRPRDDAFGHFTCGERGEKVCNPGWKGPYCTEPICLPGCDEQHGFCDKPGECKCRVGWQGRYCDECIRYPGCLHGTCQQPWQCNCQEGWGGLFCNQDLNYCTHHKPCKNGATCTNTGQGSYTCSCRPGYTGATCELGIDECDPSPCKNGGSCTDLENSYSCTCPPGFYGKICELSAMTCADGPCFNGGRCSDSPDGGYSCRCPVGYSGFNCEKKIDYCSSSPCSNGAKCVDLGDAYLCRCQAGFSGRHCDDNVDDCASSPCANGGTCRDGVNDFSCTCPPGYTGRNCSAPVSRCEHAPCHNGATCHERGHRYVCECARGYGGPNCQFLLPELPPGPAVVDLTEKLEGQGGPFPW
modifications: left off: small tags and cut ends
notes: soluble non-transmembrane form (extracellular domain) of the Notch ligand Delta1

What was measured:
Format in all cases: cell-based, murine
[1] = tested on: NCSC populations; assay: Serial subcloning and clonogenic differentiation of secondary NCSC; parameters: G (glial only) colonies / Sm (smooth muscle only) colonies / G + Sm colonies: unit not given here; conditions: for G (glial only) colonies / G + Sm colonies / N (neurons only) colonies / N + G + Sm (trifatent) colonies / N + G colonies / N + Sm colonies / Sm (smooth muscle only) colonies: differentiation profile of secondary NCSC clones; for G (glial only) colonies / G + Sm colonies / N (neurons only) colonies / N + G + Sm (trifatent) colonies / N + G colonies / N + Sm colonies / Sm (smooth muscle only) colonies / Secondary NSSC/ Founder: mean ± SD of three experiments; for clones that were trifatent (neurons, glial, and smooth muscle progeny): secondary clones from treated founder clones; for Secondary NSSC/ Founder: secondary stem cells from NCSC founders after ten days of expansion
Experimental: (§1) Clonogenic assays were performed as described (Stemple et al., 1992, Cell 71:973-985). Briefly, populations of murine NCSC were plated at a clonal density and maintained for a maximum of 14 days in Morrison media supplemented with 15% chick embryo extract (Morrison et al., 1999, Cell 96:737-749). The resulting clones were fixed in an acetic acid:ethanol solution (2:1) and stained with antibodies against peripherin (Chemicon) to detect neurons, smooth muscle actin (Sigma) to detect myofibroblasts, and GFAP (Chemicon) to detect Schwann cells. Clones were scored based on the appearance of just one phenotypic representative. The number and percentage of clones containing neurons only (N), Schwann cells only (S), myofibroblasts only (M), N+S, N+M, N+S+M, and S+M were scored at day 14 unless otherwise stated. The production of each representative phenotype in each individual clone was also scored to complement the clonal population assay.
In order to generate secondary NCSC populations, founder clones originating from differentiating E10 clones at distinct time points during NCSC differentiation (days 2 through 18) were treated with trypsin and replated at a cell clonal density using methods previously described (Kubu et al., 2000, Genomics 70:150-152). The resulting cells were subjected to immunofluorescence microscopy using both p75^+ and P0^− antibodies (Kubu et al., 2000, Genomics 70:150-152) and the p75^+/P0^− cells identified as putative stem cells. All non-p75^+/P0^− cells were removed from the dish with a tungsten needle. The cultures of secondary NCSC clones were subjected to the clonogenic assay as described above.

[2] = tested on: cortical neurospheres; assay: Cortical neurosphere model, secondary sphere formation; conditions: for F/SP × 10^2 / Cells/Founder (F) / Secondary Spheres (SP): at day 10; for Cells/Founder (F) / Secondary Spheres (SP): mean ± SD of three experiments; for secondary spheres per primary sphere: primary spheres grown 2 weeks with factor, secondary spheres in standard media
Source text: Murine E13 cerebral cortices were dissected, the ventricular zone isolated, dissected free of the meninges and utilized as a source for the generation of clonal neurspheres. The resulting cells were dispersed by aspiration to produce single cells and cells expressing the […], CD24 as previously described (Rietze et al., 2001), and peanut agglutinin antigen (PNA) were sorted using a FASC Vantage SE cell sorter at a low gate (CD24^low/PNA^low), and the cells were subjected to immunofluoresence microscopy using an antibody against CD24 (Rietze et al., 2001, Nature 412:736-739). Double-positive cells (2×10^3 /ml) were plated in suspension as described (Reynolds et al., 1992, J. Neurosci. 12:4565-4574; Reynolds et al., 1992, Science 255:1707-1710) and secondary neurospheres generated 14 days later by isolating single spheres followed by trypsin digestion of each sphere. Cells obtained from the sphere were placed in suspension culture at a clonal cell seed density and colonies selected.
The E14 prefrontal ventricular zone was dissected and plated at a clonal neurosphere-forming density in the presence of either sJ1, sDl1, thrombin, TRAP or no supplementation. After 2 weeks, the clones were dissociated to single cells and secondary spheres were generated using standard media with no supplementation (Reynolds et al., 1992, J. Neurosci. 12:4565-4574).
Secondary spheres (SP) are formed from the dissociation of founder (F) spheres. The data presented are the number of colonies (mean ± SD of three experiments). (*=p#0.05).

[3] = tested on: NCSC populations; assay: Clonogenic differentiation of primary NCSC clones (differentiation markers, GFAP immunoreactivity); conditions: for NCSC clones not expressing gliogenic or neurogenic differentiation markers: after 7 days of expansion
Experimental: as §1
Instead of examining the NCSC progeny after 14 days, developing clones were examined beginning at day 2 in order to determine the time period when gliogenic differentiation was initiated.
Specifically, clonogenic differentiation and serial subcloning assays were performed using NCSC clones incubated with either thrombin, sDl1, sJ1 or TRAP.

[4] = tested on: FGF1.A transcript; assay: RT-PCR analysis of FGF1.A mRNA in NCSC; conditions: 48 hours; 7.5 nM sJ1, 5.0 nM sDl1, 10 μg/ml α-thrombin or 5 μg/ml TRAP
[5] = tested on: Nestin, Nucleostemin, and Bmi1 transcripts; assay: RT-PCR of stem cell marker transcripts; conditions: for levels of Nestin, Nucleostemin and Bmi1 transcripts: p75+/P0- neural crest stem cells, 24 and 48 hours; for relative expression of Nestin, Nucleostemin and Bmi1 transcripts: primary and secondary neurosphere cultures
Experimental: RT-PCR was performed with 1 μg RNA using the Platinum Taq One Step RT-PCR kit (Invitrogen) as follows: RT (30 minutes at 50° C.), PCR (40 cycles at 94° C. for 15 seconds, at 58° C. for 30 seconds and 72° C. for 1 minute). All amplified cDNA was visualized with ethidium bromide followed by 1.5% agarose gel electrophoresis. RT-PCR analysis of fgf and gapdh was performed as previously described elsewhere herein. RT-PCR analysis of stem cell RNA was performed as previously described (Verdi et al., 1994, Neuron 13:1359-1372; Verdi et al., 1996, Neuron 16:515-527) using primers generating amplification products of Nucleostemin from 894 to 1304 of the mouse cDNA (sense: Nucleostemin 894 5′-CAAATGTGGGGAAAAGCAGTGTCA-3′ [SEQ ID NO:34] and antisense: Nucleostemin 1304 5′-GCAGGGGGATGGCAATAGTAACC-3′ [SEQ ID NO:35]); Bmi1 from 242 to 632 of mouse cDNA (sense: Bmi 242 5′-AATTAGTCCCAGGGCTTTTCAA-3′ [SEQ ID NO:36] and antisense: Bmi 632 5′-GGGCCATTTCTTCTCCAGGTAT-3′ [SEQ ID NO:37]), and Nestin from 320-748 (sense: Nestin 320 5′-CA ACC TTG CCG AAG AGC TGG-3′ [SEQ ID NO:38] and antisense: Nestin 720 5′-TCTAAGCGACTCTCCGAGCGC-3′ [SEQ ID NO:39]). Each reaction product was measured as a ratio relative to the amplification product of actin and samples were run in triplicate. All RT-PCR experiments were performed at least three times from separate stem cell isolations. Dual Luciferase Reporter Assay

| Molecule | G (glial only) colonies [1] | G + Sm colonies [1] | N (neurons only) colonies [1] | N + G + Sm (trifatent) colonies [1] | N + G colonies [1] | N + Sm colonies [1] | Sm (smooth muscle only) colonies [1] | clones that were trifatent (neurons, glial, and smooth muscle progeny) [1] | Secondary NSSC/ Founder [1] | F/SP × 10^2 [2] | Cells/Founder (F) [2] | Secondary Spheres (SP) [2] | secondary spheres per primary sphere [2] | NCSC clones not expressing gliogenic or neurogenic differentiation markers [3] | percentage of the colony expressing the glial-specific protein (GFAP) ([3]; at day 7) | gliogenic differentiation of NCSC ([3]; two week differentiation assay) | expression of the FGF1.A transcript in NCSC [4] | levels of Nestin, Nucleostemin and Bmi1 transcripts [5] | relative expression of Nestin, Nucleostemin and Bmi1 transcripts [5] | exposure time after which GFAP immunoreactive cells were detected ([3]; NCSC populations) |
| --- | --- | --- | --- | --- | --- | --- | --- | --- | --- | --- | --- | --- | --- | --- | --- | --- | --- | --- | --- | --- |
| sJ1: Soluble Jagged1, amino acid residues about 1 to 1067 (SEQ ID NO:3) of full-length human Jagged1 | 7.8 ± 1.4 | 3.4 ± 2.8 | 0 | 74.1 ± 9.1 | 7.0 ± 5.6 | 1.5 ± 1.7 | 6.2 ± 1.0 | 74.1±9% | 26.2 ± 6 | 10%* | 527 ± 170* | 55 ± 14 | 64±11 | 84±7% | 23±5 | capable of inducing gliogenic differentiation of the NCSC population over the two week period | induced the expression of the FGF1.A transcript | no significant change | elevated | – |
| thrombin | 0 ± 0 | 2.0 ± 2.1 | 0 | 86.8 ± 2.1 | 3.93 ± 3.8 | 4.5 ± 2.1 | 2.6 ± 1.01 | 86.8±2.1% | 36.8 ± 6.3 | 13%* | 488 ± 166* | 64 ± 11 | 55±14 | 75±11% | – | – | induced the expression of the FGF1.A transcript | no significant change | elevated | – |
| B1 | 72 ± 6.4 | 3.4 ± 2.8 | 0 | 0.5 ± 0.7 | 0 | 0 | 20.5 ± 6.5 | 0.5% | 0.6 ± 1.0 | 2.0% | 150 ± 69* | 3 ± 3 | 3±3 | 0±0% | – | – | did not influence the steady-state levels of the FGF1.A transcript | sharply decreased | – | 48 h |
